The results in this text go back to patent publication US20260226417A1, “METHOD FOR INHIBITING AGING OF STEM CELLS” (ENCELL CO., LTD, priority 2023, published 2026).

The subject of series [1] is replicative senescence-induced human umbilical cord-derived mesenchymal stem cells (P18). Briefly: Cell proliferation by CCK-8 assay, 6 days, replicative senescence model (P18). The format is cell-based. As to conditions: 160 μM. As for the experimental part:
(§1) Example 4. Validation of gut microbiota-derived metabolite candidate for senescence control Control cells (P5) and replicative senescence-induced human umbilical cord-derived mesenchymal stem cells (P18) were treated with nervonic acid (160 μM) to analyze the effects of the gut microbiota-derived metabolite having the ability to control senescence of stem cells on the proliferation of stem cells and cell size.
(§2) Specifically, control cells (p5) and replicative senescence-induced human umbilical cord-derived mesenchymal stem cells (P18) were exposed to nervonic acid (160 μM) in culture medium, followed by culture for 6 days while replacing the medium every 3 days, and cell proliferation was assessed using CCK-8 assay.
A general note: Formazan colour is commonly taken as a measure of viable cells.

The test system of series [2] is control cells (P5), human umbilical cord-derived mesenchymal stem cells. Description: Cell proliferation by CCK-8 assay, 6 days, control cells (P5). The format is cell-based. The note with it: 160 μM. As for the experimental part: as §1, §2
In series [3] the test system is mesenchymal stem cell-positive markers CD44, CD73, CD90, CD105, CD166 and negative markers CD11b, CD14, CD19, CD34, CD45, HLA-DR. Description: Stemness analysis by FACS in replicative senescence model (P18). The format is cell-based, human. As to conditions: 160 μM, 3 days. As for the experimental part:
Example 6. Comparative analysis of stemness of gut microbiota-derived metabolite for senescence control A replicative senescence model (P18) was treated with nervonic acid (160 μM) to assess the effect thereof on stemness and adipogenesis.
The replicative senescence model (P18) was treated with nervonic acid (160 μM), and the expression changes of the mesenchymal stem cell-positive markers CD44, CD73, CD90, CD105, and CD166, as well as the mesenchymal stem cell-negative markers CD11b, CD14, CD19, CD34, CD45, and HLA-DR were confirmed through FACS.
Specifically, 3.6×10^6 cells treated with nervonic acid (160 μM) for 3 days were centrifuged, suspended in 1.2 ml of FACS buffer (PBS 98%+FBS 2%), and allowed to stand at room temperature for 30 minutes. Thereafter, 100 ul thereof was dispensed into each of 11 1.5 ml tubes (3×10^5 cells per tube), and a predetermined amount of antibody was added to each tube, followed by reaction at room temperature for 20 minutes in a light-blocking state. After washing by adding 200 μl of FACS buffer, centrifugation was performed at room temperature at 300 g for 5 minutes, the supernatant was removed, and the cells were suspended in 500 μl of FACS buffer and then transferred to a FACS tube for analysis.
On the technique in general: Flow cytometry measures light scatter and fluorescence of single cells or particles in a stream.

Series [4] concerns MyHC (myosin heavy chain), a marker of muscle regeneration, in muscle tissue. Briefly: MyHC immunohistochemical staining in muscle tissue of muscle disease mouse model after injection of treated P18 cells. As to conditions: P18 cells treated with 160 μM for 72 hours, injected via tail vein, mdx mouse, one week after injection. The format is in vivo. As for the experimental part:
(§3) Specifically, the muscle disease mouse model used was C57BL/10ScSn-Dmdmdx/J (mdx mouse) , and C57BL/10J with the same genetic background was used as a control group. All experiments were conducted using mice aged 4 to 5 months. The cells to be injected were human umbilical cord-derived young mesenchymal stem cells (control group) (P5) and replicative senescence model (P18). More specifically, the replicative senescence model (P18) was treated with 160 μM nervonic acid or an equivalent amount of DMSO for 72 hours during culture at P18 and then dissociated as single cells with 0.25% Trypsin/EDTA (Gibco, MT, USA), and 5×10^4 cells per mouse were injected via the tail vein. One week after injection, both tibial muscles of the mouse model were harvested and fixed in 4% paraformaldehyde or frozen.
Example 10. […]
In order to assess the extent of muscle regeneration in the muscle tissue of a muscle disease mouse model after injecting mesenchymal stem cells for each condition, the extent of muscle regeneration in the tissue was determined through immunohistochemical staining for MyHC (myosin heavy chain), a marker of muscle regeneration. […]

The test system of series [5] is control cells (P5), human umbilical cord-derived mesenchymal stem cells. Briefly: Cytotoxicity by CCK-8 assay, control cells (P5). The format is cell-based. The note with it: 160 μM.
In series [6] the test system is MyHC (myosin heavy chain), a marker of muscle regeneration, in muscle tissue. Description: MyHC Western blotting in muscle tissue of muscle disease mouse model after injection of treated P18 cells. As to conditions: P18 cells treated with 160 μM for 72 hours, injected via tail vein, mdx mouse, one week after injection. The format is in vivo. As for the experimental part:
as §3
Example 10. Comparative analysis of muscle regeneration promotion efficacy after injection of various human tissue-derived mesenchymal stem cells treated with nervonic acid into muscle disease mouse model A replicative senescence model (P18) was treated with nervonic acid (160 μM) and then injected into a muscle disease mouse model to assess the effect of nervonic acid treatment on the therapeutic efficacy of the replicative senescence model (P18) in terms of muscle regeneration in muscle tissue.
In addition, the expression of MyHC was assessed at the protein level. […]
In general terms: A western blot detects proteins with antibodies after separation by electrophoresis.

The subject of series [7] is replicative senescence model of human umbilical cord-derived mesenchymal stem cells (P18). Description: Cell size measurement, replicative senescence model (P18). The format is cell-based. As to conditions: 160 μM, 3 days. As for the experimental part:
as §1
In addition, since cells have the characteristic of undergoing hypertrophy during the progression of cellular senescence, cell sizes were compared.

Series [8] concerns SASP (senescence-associated secretory phenotype) markers MMP3, IGFBP5, IGFBP7. Description: qRT-PCR of SASP markers in replicative senescence model (P18). The format is cell-based, human. As to conditions: 160 μM, 3 days. The procedure: Additionally, there is a report in which the gene expression of SASP (senescence-associated secretory phenotype) is increased in senescent cells, so the expression of MMP3, IGFBP5, and IGFBP7 was assessed at the mRNA level through qRT-PCR.
Specifically, qRT-PCR performed in this example is as follows: after treating the replicative senescence model (P18) with nervonic acid for 3 days, total RNA was extracted using Trizol (Invitrogen, MA, USA) according to the method provided by the vendor. After quantifying the extracted total RNA, random hexamer and dNTP were added, and PCR was performed at 65° C. for 5 minutes. 5× SSIV buffer, 100 mM DTT, RNAse OUT, and Superscript IV RT were added and reverse transcription was performed to synthesize cDNA, and then qRT-PCR was performed to measure gene expression, and the expression levels were compared through 2^−ΔΔCt analysis.

As for `CCCCCCCC/C=C\CCCCCCCCCCCCCC(=O)O` [nervonic acid], in series [1], the cell proliferation result is given as “proliferation was significantly reduced”. In addition, the cell proliferation entry in series [2] is “no change in proliferation”. In series [3], the “expression of CD11b, a mesenchymal stem cell-negative marker” value is given as “decreased”; the “expression of mesenchymal stem cell-positive markers CD44, CD73, CD90, CD105, and CD166” value is “restored”. Also, the “MyHC expression level (immunohistochemical staining) compared to injection group treated with DMSO” value in series [4] is “slightly increased”. The “change in cell viability” value in series [5] is reported as “no change in cell viability”. The “MyHC protein expression level (Western blotting) compared to DMSO treatment group” value in series [6] is “significantly increased”. Also, in series [7], the “cell size, fold decrease compared to before treatment” value is 0.47±0.03 fold. In series [8], the “IGFBP5 mRNA expression, fold compared to before treatment” value came to 0.62±0.03 fold; the “IGFBP7 mRNA expression, fold compared to before treatment” value stood at 0.77±0.03 fold; the “MMP3 mRNA expression, fold compared to before treatment” value is listed as 0.76±0.04 fold.
